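These data come from cells grown in 96-well plates and exposed to compound for 48 hours at five concentrations. GI50 = concentration required for 50% inhibition of growth. At the TGI there is no net growth.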
What was measured:
Assay in all cases: inhibition of tumour cell growth, NCI panel, 48 h
SK-OV-3 ovarian = system: SK-OV-3 ovarian
UO-31 renal = system: UO-31 renal
LOX IMVI melanoma = system: LOX IMVI melanoma
NCI-H460 lung = system: NCI-H460 lung
ACHN renal = system: ACHN renal
MDA-MB-231 breast = system: MDA-MB-231 breast
TK-10 renal = system: TK-10 renal
MOLT-4 leukemia = system: MOLT-4 leukemia
PC-3 prostate = system: PC-3 prostate
M14 melanoma = system: M14 melanoma

Row | SMILES | GI50 (SK-OV-3 ovarian) [µM] | TGI (SK-OV-3 ovarian) [µM] | GI50 (UO-31 renal) [µM] | TGI (UO-31 renal) [µM] | GI50 (LOX IMVI melanoma) [µM] | TGI (LOX IMVI melanoma) [µM] | GI50 (NCI-H460 lung) [µM] | TGI (NCI-H460 lung) [µM] | GI50 (ACHN renal) [µM] | TGI (ACHN renal) [µM] | GI50 (MDA-MB-231 breast) [µM] | TGI (MDA-MB-231 breast) [µM] | GI50 (TK-10 renal) [µM] | TGI (TK-10 renal) [µM] | GI50 (MOLT-4 leukemia) [µM] | TGI (MOLT-4 leukemia) [µM] | GI50 (PC-3 prostate) [µM] | TGI (PC-3 prostate) [µM] | GI50 (M14 melanoma) [µM] | TGI (M14 melanoma) [µM]
1 | Clc1ccc2ncc(-c3cccc(NC4CNC4)n3)n2c1 | 9.24 | > 100 | 5.12 | 88.5 | 2.47 | 13.8 | 2.96 | 13.5 | 1.91 | > 100 | 6.48 | 75.1 | 8.03 | 93.3 | 5.03 | > 100 | 4.55 | 80.9 | 8.87 | 25.5
2 | CC(c1ccccc1)[C@@H](C(=O)Nc1ccc(I)cc1F)N1C(=O)N[C@H](c2ccc(OC[C@H](O)CO)cc2)C1=O (stereo partly drawn) | > 25 | > 25 | 9.91 | > 25 | 2.5 | > 25 | > 14.6 | > 25 | 8.48 | > 25 | 1.56 | > 25 | 4.86 | > 25 | 12.5 | > 25 | > 15.4 | > 25 | 0.0707 | 5.74
3 | N#Cc1ccccc1C#C/C=C\C#CC#C/C=C\C#Cc1ccccc1C#N | 28.6 | > 100 | 21.8 | > 100 | 17.3 | 45 | 41.3 | > 100 | 7.39 | 37.8 | 8.76 | 35.4 | 23.9 | 83 | 15.6 | 89.3 | 19.6 | > 100 | 11.3 | 35.5
4 | O=C(COc1ccc(OCC(=O)N2C(=O)CN(c3ccccc3)C2=S)cc1)N1C(=O)CN(c2ccccc2)C1=S |  | > 100 | > 25 | > 100 | 29.6 | > 100 | > 25 | > 100 | > 25 | > 100 | > 25 | > 100 | > 25 | > 100 | > 100 | > 100 |  | > 100 | > 25 | > 100
5 | CCOC(=O)/C(C#N)=C1\SS/C(=C(/C#N)C(=O)OCC)S1 | > 100 | > 100 | 13.2 | 26.1 | 13.9 | 57.4 | 32 | > 100 | 14.8 | 29.5 | 14.9 | 29.6 | 6.81 | 20.3 | 10.8 | 57.8 | 19.7 | 40.7 | 17 | 35.9
6 | C(=Nc1cnc2ccccc2c1)c1ccc2ccccc2n1 |  | > 100 |  | > 100 |  | > 100 |  | > 100 |  | > 100 |  | > 100 |  | > 100 |  | > 100 |  | > 100 |  | > 100
7 | O=C(/C=C/C(Cl)(Cl)Cl)Nc1ccc(Cl)cc1 |  | 34.6 |  | 1.91 |  | 2.2 |  | 40 |  | 6.37 |  | 6.15 |  | 5.73 |  | 3.28 |  | 26.5 |  | 11.7
8 | COc1cc(/C=C/C(=O)N2CCC=CC2=O)cc(OC)c1OC | 13.8 | 27.3 | 1.78 | 5.09 | 2.09 | 5.13 | 3.36 | 10.6 | 1.73 | 3.28 | 3.38 | 10.8 | 2.99 | 6.76 | 2.74 | 9.48 | 7.36 | 28.5 | 1.92 | 4.41
9 | C/C(=N/O)c1ccc2c(c1)/C(=N/O)c1ccccc1-2 | 35.7 | > 100 | 18.7 | 38.2 | 16.3 | 33.3 | 21.1 | 46.4 | 20.6 | 46.1 | 23 | 56.5 | 26.7 | 67.2 | 20.2 | 49.4 | 24.2 | 57.4 | 21.9 | 40.6
10 | COc1ccc(Cl)cc1Nc1nc(C(F)(F)F)ccc1C(=O)N/N=C/c1cccnc1 | 2.47 | > 100 | 4.1 | > 100 | 3.17 | > 100 | 4.03 | > 100 | 4.04 | > 100 | 4.51 | > 100 | 5.9 | > 100 | 1.66 | > 100 | 3.8 | > 100 | 2.42 | > 100
11 | Cc1ccc(-c2nc3cc(Cl)c(Cl)cc3nc2C#N)cc1 | > 100 | > 100 | > 100 | > 100 | > 100 | > 100 | > 100 | > 100 | 39 | > 100 | > 100 | > 100 | 49.2 | > 100 | > 100 | > 100 | > 100 | > 100 | > 100 | > 100
12 | O=c1ccc(=O)n(-c2ccccc2)[nH]1 |  | > 100 |  | > 100 |  | > 100 |  | > 100 |  | > 100 |  | > 100 |  | > 100 |  | > 100 |  | > 100 |  | > 100
13 | COc1c(O)cc2c(c1O)C(=O)C1=C(CCCC1)C2=O |  | 48.8 |  | 43.8 |  | 33.6 |  | 73.4 |  | 58.4 |  | 64.1 |  | 74.7 |  | 23 |  | 84.5 |  | > 100
14 | Cc1nc(-c2cnc(NC(C)C)n(C)c2=O)ccc1Oc1ccnc(-c2cnn(C)c2)c1 | 23.5 | > 100 | 15.7 | > 100 | 20.7 | > 100 | 13.2 | > 100 | 18.9 | > 100 | 20.5 | > 100 | 16 | 75.4 | 5.16 | 35.2 | 16.5 | > 100 | 5.72 | 33.4

— PubChem BioAssay (NCI)
